Results on two compounds are retold here after US20250375427A1 (Biohaven Therapeutics Ltd., priority 2022, published 2025).

The test system of one data set is glioma. Particulars: cited from earlier work.
Data set [1] is described as follows: Clinical adverse events observed with troriluzole. The conditions noted are these: human, in vivo. From the text:
In general, mild liver enzymes elevations attributed to troriluzole occur due to enzyme induction and are likely to resolve spontaneously within 12 weeks without any changes in the dose of troriluzole. However, the investigator should evaluate the subject, as appropriate.

The subject of another data set is 64SP stem like cells. Particulars: combined with radiation; cited from earlier work.
Data set [2] relates to O^6-methylguanine-DNA-methyltransferase (MGMT) expression. Particulars: combined with temozolomide (TMZ); cited from earlier work.

As to `CN(CC(=O)Nc1nc2ccc(OC(F)(F)F)cc2s1)C(=O)CNC(=O)CN` [Troriluzole, troriluzole], the “concentration of CD4+ T cells in TME” value with glioma (IF data, after troriluzole treatment) is given as “increased concentration of CD4+ T cells in TME”. Further, in the data set with glioma (troriluzole treatment), the “proliferation of tumor-infiltrating T cells” value was “promoted proliferation of tumor-infiltrating T cells” and the survival entry is given as “induced a survival benefit”. Further, the “survival and T regulatory cells in combination with anti-PD-1” value in the data set on glioma (with anti-PD-1 immunotherapy, glioma tumor microenvironment (TME)) was “synergized with anti-PD-1 immunotherapy to further improve survival and reduce T regulatory cells”. Moreover, in data set [1], the “most commonly observed adverse events” value is reported as “Mild increases in liver enzymes”.

On to `Nc1nc2ccc(OC(F)(F)F)cc2s1` [Riluzole, riluzole], for which the sensitivity to radiation result in the data set on 64SP stem like cells is given as “enhances sensitivity to radiation”. Further, the “effects of TMZ” value in data set [2] is “enhances the effects of TMZ via suppression of O^6-methylguanine-DNA-methyltransferase (MGMT) expression”.
